Where a name gives a salt, the structure may show the parent alone.
Experiments:
Type in all cases: cell-based
[1] = target: T1, Arg261Gln (R261Q) PAH (Homo sapiens (Human), UniProt P00439, R261Q); experiment: Phenylalanine hydroxylase enzyme activity assay in transfected COS7 cells; conditions: compound 10 μM (sepiapterin 5 μM), 48 h
Protocol: (§1) 2. Phenylalanine Hydroxylase Enzyme Activity Assay
(§2) This assay was completed in cell culture to analyze the enzyme activity in the presence of compounds. In brief, wild-type or Arg261Gln PAH constructs were transiently expressed in COS7-cells in a 96 well format reflecting the PAH genotype (COS7 cell line has no endogenous PAH). Cells were treated with the compounds at a final concentration of 10 μM and the enzyme activity of PAH was analyzed 48 h after transfection. The effect of the compounds on the residual enzyme activity was determined in comparison to non-treated cells (NCC, only compound solvent final 0.1%). To normalize the cellular background signal non transfected cells (NT control) were treated with compound or solvent equally for 48 h. As a positive control we used sepiapterin, a stable precursor of BH4 (CAS 17094-01-8), stabilized in 100 mM DTT, in a final concentration of 5 μM.
(§3) PAH activities were assayed at 25° C. as previously described (Gersting, S. W., J. Biol. Chem., 2010, 285(40), 30686-30697) with modifications. The standard mixture contained 22.35 mM NaHepes, pH 7.0, […] catalase, 10 μM ferrous ammonium sulphate, and 1 mM L-Phe (L-phenylalanine) final. Assay mixture and cell culture enzyme were pre-incubated for 5 min and the reaction was initiated by the addition of 75 μM BH4 (stabilized in 100 mM dithiothreitol) final, run for 60 min and stopped by acetic acid. The amount of L-tyrosine production was measured and quantified by HPLC, assayed as triplicates.
(§4) The effect of compound on PAH enzyme activity was calculated from triplicates as follows: first the background of the NT cells were subtracted from the transfected cells (treated or NCC) and then the percentage of treated (compound) versus NCC was determined. Enzyme activity greater than 100% represents an increase in the enzyme activity with respect to NCC.

[2] = target: T2, wild-type PAH (Homo sapiens (Human), UniProt P00439); experiment: as above; conditions: compound 10 μM (sepiapterin 5 μM), 48 h
T2 sequence (P00439 whole entry): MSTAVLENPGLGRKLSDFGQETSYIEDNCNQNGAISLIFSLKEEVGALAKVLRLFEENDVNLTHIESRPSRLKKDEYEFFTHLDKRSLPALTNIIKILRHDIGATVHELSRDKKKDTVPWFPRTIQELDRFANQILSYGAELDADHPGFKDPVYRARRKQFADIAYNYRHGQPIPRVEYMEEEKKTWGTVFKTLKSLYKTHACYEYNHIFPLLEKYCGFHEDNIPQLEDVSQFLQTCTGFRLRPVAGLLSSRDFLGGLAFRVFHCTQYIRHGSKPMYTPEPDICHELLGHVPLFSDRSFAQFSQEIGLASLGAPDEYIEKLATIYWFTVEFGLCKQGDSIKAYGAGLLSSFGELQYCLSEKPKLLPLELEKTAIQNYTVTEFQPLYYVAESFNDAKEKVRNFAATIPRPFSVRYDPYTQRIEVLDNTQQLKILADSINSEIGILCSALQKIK
Protocol: as §1, §2, §3, §4

[3] = target: T1, Arg261Gln (R261Q) PAH; experiment: Phenylalanine hydroxylase residual protein amount (dot blot, COS-7 lysates); conditions: COS-7, 48 h, COS-7 cells, compound 10 μM (sepiapterin 5 μM), read-out: PAH protein level (immune blot signal) R261Q PAH Mean
Protocol: (§5) 3. Phenylalanine Hydroxylase Residual Protein Amount
(§6) The analysis of the residual PAH protein amount was based on the method described in Gersting S. W. et al., Human Molecular Genetics, 2010, 19(10), 2039-2049 with modifications.
(§7) Detection of the residual PAH protein amount was performed as a dot blot using the lysates obtained from the cell culture where transiently transfected COS-7 cells (with wild-type PAH or PAH variant) were exposed for 48 h to compounds. The experiment was carried out from the same samples as used for measuring enzyme activities.
(§8) 2 μl of the lysate were dropped onto the nitrocellulose membrane. The membrane was allowed to air dry at room temperature for 30 min followed by 40 min blocking in 5% milk in TBS-Tween (room temperature). The membrane was incubated with the mouse monoclonal primary antibody specific for PAH (Millipore, Cat. No. MAB5278, 1:1000 dilution in 5% milk in TBS-Tween) for overnight at 4° C. Next, the membrane was washed (3×10 min in TBS-Tween) and incubated with the secondary HRP-conjugated antibody (anti-mouse antibody; Santa Cruz Biotechnology, Inc., Cat. No. sc-2005; 1:1000 dilution in 5% milk in TBS-Tween) followed by thorough washing in TBS-Tween (3×10 min) and distilled water (1×10 min). Blots were visualized with Pierce™ ECL substrate (ThermoFisher Scientific, Cat No. 32106) and chemiluminescence was monitored with a DIANA III Imaging system or ChemiDoc™ MP Imaging System (BioRad). To analyze the compound effect on the PAH protein amount densitometry analysis was performed using ImageJ Software.
(§9) The effect of compound on PAH protein amount was calculated from triplicates. As for determination of the enzyme activity the background of the not transfected cells (NT) was subtracted from the transfected cells (NCC or compound treated). In the next step delta of the NCC versus compound treated cells was calculated. Residual protein amount greater than 100% represents an increase in the stability of the enzyme with respect to NCC.

[4] = target: T2, wild-type PAH; experiment: as above; conditions: COS-7, 48 h, COS-7 cells, compound 10 μM (sepiapterin 5 μM), read-out: PAH protein level (immune blot signal) WT PAH Mean
Protocol: as §5, §6, §7, §8, §9

T1 sequence (P00439 whole entry R261Q): as the sequence (P00439 whole entry) above, with R261Q counted along it

Row | PAH enzyme activity (L-Tyrosine formation) R261Q PAH Mean [1] [% NCC] | PAH enzyme activity (L-Tyrosine formation) WT PAH Mean [2] [% NCC] | PAH protein level (% of control) at 10 µM [3] [%] | PAH protein level (% of control) at 10 µM [4] [%] | Structure (SMILES)
1 | 531.60 | 284.15 | 256 | 108 | Cc1ccc2[nH]c(N)nc(=O)c2c1Sc1ccncc1 [Nolatrexed 2HCl, 2-amino-6-methyl-5-(4-pyridylthio)-4(3H)-quinazolinone]
2 | 131.23 | 104.71 | – | – | CCN1CCCC1CNC(=O)c1cc(S(=O)(=O)CC)ccc1OC (stereo not drawn) [Sultopride HCl, N-[(1-ethyl-2-pyrrolidinyl)methyl]-5-(ethylsulfonyl)-o-anisamide]
3 | 2089.79 | 297.14 | – | 106 | C[C@H](O)C(=O)C1=Nc2c([nH]c(N)nc2=O)NC1 [Sepiapterin, S-(−)-2-amino-7,8-dihydro-6-(2-hydroxy-1-oxopropyl)-4(1H)-pteridinone]
